Values joined by “and” are separate entries in the source; they are usually repeats but may differ in a detail not shown here. Equal entries are not always repeated. Where two headings read alike, the source gives them in different places.
Test: Plasma concentrations of BVDU, BVU and GEM in patients of the dose finding study (HPLC)
Assay type: in vivo, human
Settings: for concentration at 0 hr / concentration at 0 h / concentration at 0.5 hr / concentration at 1 hr / concentration at 1.5 hr / concentration at 2 hr / concentration at 3 hr / concentration at 4 hr / concentration at 4 h / concentration at 5 hr / concentration at 9 hr / concentration at 0.5 h / concentration at 1 h / concentration at 1.5 h / concentration at 2 h / concentration at 3 h / concentration at 5 h / concentration at 9 h: human, plasma, po; for concentration at 0 hr / concentration at 0 h / concentration at 0.5 hr / concentration at 1 hr / concentration at 1.5 hr / concentration at 2 hr / concentration at 3 hr / concentration at 4 hr / concentration at 4 h / concentration at 5 hr / concentration at 9 hr / concentration at 0.5 h / concentration at 1 h / concentration at 1.5 h / concentration at 2 h / concentration at 3 h / concentration at 5 h / concentration at 9 h / BVDU plasma concentration, patient: day 1, oral BVDU
Method: Dose finding study: 22 Patients with advanced pancreatic adenocarcinoma were eligible for treatment in this single arm study. The mean age was 60 years and 73% of patients were males. One patient without progressive disease was excluded from the study for withdrawal of consent after the first cycle. Of the 21 patients left, 15 were in stage IV and 6 in stage III. BVDU was administered in a combination with GEM. On day 1, on day 8 and on day 15 of each 28-day cycle, BVDU was given together with GEM. On days 2-4, on days 8-11, and on days 15-18 of a 28-day cycle, BVDU was given alone in the recovery phase.
The starting dose of BVDU was 4×125 mg/day (total dose of 6,000 mg per treatment cycle) together with a fixed dose of GEM (1,000 mg/M^2). Subsequent total doses of BVDU per cycle were 7,500 mg, 9,000 mg, 10,500 mg, and 12,000 mg again in four patients per cohort. Dosage levels were administered as follows: First dose level: The starting dose of BVDU was 4×125 mg daily given at approximately 08:00 a.m. (1×125 mg BVDU), 12:00 a.m. (1×125 mg BVDU), 04:00 p.m. (1×125 mg BVDU), and 08:00 p.m. (1×125 mg BVDU). These doses were administered on days 1 to 4, days 8 to 11 and days 15 to 18; Second dose level: 1×250 mg+3×125 mg daily; Third dose level. 2×250 mg+2×125 mg daily; Forth dose level: 3×250 mg+1×125 mg daily; and, Fifth dose level: 4×250 mg daily.
Approximately 1 hour after the 08:00 a.m. BVDU-administration on day 1, day 8 and day 15 of a cycle, the GEM infusion started and GEM was infused for 30 minutes.
Analysis of the concentrations of GEM and BVDU (BVDU) as well as analysis of the concentrations of BVU ((E)-5-(2-bromovinyl)uracil, degradation product of BVDU) in plasma samples: 0.5 ml of plasma spiked with about 0.5 μg of 4-Propyl-2-thiouracil (PTU) as internal standard was extracted with 2.5 ml of methanol-acetonitrile (v/v, 1:9) by vigorous mixing for about 1 min. After centrifugation the supernatant was transferred to a beaker and evaporated to dryness at 50° C. under a gentle stream of nitrogen. The residue was dissolved in 1 ml of the solution used as mobile phase by 10 min treatment in an ultrasonic bath. After centrifugation the clear supernatant was used for HPLC-analysis. The concentrations of GEM and BVDU were calculated using a calibration curve with the respective standard substances. The concentrations of BVU were calculated using the calibration curve of BVDU and the determined response factor. Limits of detection: BVDU 20 ng/ml plasma; GEM 30 ng/ml plasma. Limits of quantification: BVDU 60 ng/ml plasma; GEM 100 ng/ml plasma.
Pharmacokinetic Results BVDU: All measurements were performed within 9 hours. Therefore, only the first three intakes of BVDU-tablets were relevant in this context, and as consequence, in dose groups four and five the intake of tablets was identical. When the dose was doubled from 125 mg to 250 mg, the mean maximum BVDU concentration in plasma increased fivefold from 290 (±152) ng/ml to 1549 (±1058) ng/ml (FIG. 10).

[1] = both sexes, dose level 6000 mg, read-out: BVDU plasma concentration, Mean
[2] = both sexes, dose level 6000 mg, read-out: BVDU plasma concentration, Median
[3] = both sexes, dose level 7500 mg, read-out: BVDU plasma concentration, Mean
[4] = both sexes, dose level 10500 mg, read-out: BVDU plasma concentration, Mean
[5] = both sexes, dose level 10500 mg, read-out: BVDU plasma concentration, Median
[6] = both sexes, dose level 12000 mg, read-out: BVDU plasma concentration, Mean
[7] = both sexes, dose level 12000 mg, read-out: BVDU plasma concentration, Median
[8] = dose level 7500 mg, read-out: BVDU plasma concentration, Median
[9] = dose level 9000 mg, read-out: BVDU plasma concentration, Mean
[10] = dose level 9000 mg, read-out: BVDU plasma concentration, Median

Which results are given for O=c1[nH]c(=O)n([C@H]2C[C@H](O)[C@@H](CO)O2)cc1/C=C/Br [BVDU, (E)-5-(2-bromovinyl)-2′-deoxyuridine]?
Mean maximum BVDU concentration in plasma (BVDU dose 125 mg): 290 (±152) ng/ml; Mean maximum BVDU concentration in plasma (BVDU dose 250 mg): 1549 (±1058) ng/ml; concentration at 0 hr [1]: 0 ng/mL; concentration at 0 hr [2]: 0 ng/mL; concentration at 0 h (both sexes, dose level 6000 mg, read-out: BVDU plasma concentration, patient): 0 ng/mL; concentration at 0.5 hr [1]: 213 ng/mL; concentration at 0.5 hr [2]: 213 ng/mL; concentration at 1 hr [1]: 177 ng/mL; concentration at 1 hr [2]: 109 ng/mL; concentration at 1.5 hr (both sexes, dose level 6000 mg, 1.5 hr, read-out: BVDU plasma concentration, Mean): 250 ng/mL; concentration at 1.5 hr (both sexes, dose level 6000 mg, 1.5 hr, read-out: BVDU plasma concentration, Median): 226 ng/mL; concentration at 2 hr [1]: 231 ng/mL; concentration at 2 hr [2]: 207 ng/mL; concentration at 3 hr [1]: 175 ng/mL; concentration at 3 hr [2]: 133 ng/mL; concentration at 4 hr (both sexes, dose level 6000 mg, 4.0 hr, read-out: BVDU plasma concentration, Mean): 113 ng/mL; concentration at 4 hr (both sexes, dose level 6000 mg, 4.0 hr, read-out: BVDU plasma concentration, Median): 122 ng/mL; concentration at 4 h (both sexes, dose level 6000 mg, 4.0 hr, read-out: BVDU plasma concentration, patient): 126 ng/mL; concentration at 5 hr [1]: 300 ng/mL; concentration at 5 hr [2]: 334 ng/mL; concentration at 9 hr [1]: 391 ng/mL; concentration at 9 hr [2]: 403 ng/mL; concentration at 0 hr [3]: 0 ng/mL; concentration at 0 hr (both sexes, dose level 7500 mg, read-out: BVDU plasma concentration, patient): 0 ng/mL; concentration at 0.5 hr [3]: 1600 ng/mL; concentration at 1 hr [3]: 872 ng/mL; concentration at 1.5 hr (both sexes, dose level 7500 mg, 1.5 hr, read-out: BVDU plasma concentration, Mean): 555 ng/mL; concentration at 2 hr [3]: 454 ng/mL; concentration at 3 hr [3]: 302 ng/mL; concentration at 4 hr (both sexes, dose level 7500 mg, 4.0 hr, read-out: BVDU plasma concentration, Mean): 243 ng/mL; concentration at 9 hr [3]: 952 ng/mL; concentration at 0 h [4]: 0 ng/mL; concentration at 0 h [5]: 0 ng/mL; concentration at 0 h (both sexes, dose level 10500 mg, read-out: BVDU plasma concentration, patient): 0 ng/mL; concentration at 0.5 h [4]: 1110 ng/mL; concentration at 0.5 h [5]: 1150 ng/mL; concentration at 1 h [4]: 1010 ng/mL; concentration at 1 h [5]: 1010 ng/mL; concentration at 1.5 h (both sexes, dose level 10500 mg, 1.5 hr, read-out: BVDU plasma concentration, Mean): 636 ng/mL; concentration at 1.5 h (both sexes, dose level 10500 mg, 1.5 hr, read-out: BVDU plasma concentration, Median): 566 ng/mL; concentration at 2 h [4]: 697 ng/mL; concentration at 2 h [5]: 669 ng/mL; concentration at 3 h [4]: 453 ng/mL; concentration at 3 h [5]: 279 ng/mL; concentration at 4 h (both sexes, dose level 10500 mg, 4.0 hr, read-out: BVDU plasma concentration, Mean): 206 ng/mL; concentration at 4 h (both sexes, dose level 10500 mg, 4.0 hr, read-out: BVDU plasma concentration, Median): 212 ng/mL; concentration at 5 h [4]: 400 ng/mL; concentration at 5 h [5]: 410 ng/mL; concentration at 9 h [4]: 2070 ng/mL; concentration at 9 h [5]: 1390 ng/mL; concentration at 0 h [6]: 0 ng/mL; concentration at 0 h [7]: 0 ng/mL; concentration at 0 h (both sexes, dose level 12000 mg, read-out: BVDU plasma concentration, patient): 0 ng/mL; concentration at 0.5 h [6]: 1490 ng/mL; concentration at 0.5 h [7]: 672 ng/mL; concentration at 1 h [6]: 1160 ng/mL; concentration at 1 h [7]: 1020 ng/mL; concentration at 1.5 h (both sexes, dose level 12000 mg, 1.5 hr, read-out: BVDU plasma concentration, Mean): 1050 ng/mL; concentration at 1.5 h (both sexes, dose level 12000 mg, 1.5 hr, read-out: BVDU plasma concentration, Median): 844 ng/mL; concentration at 1.5 h (both sexes, dose level 12000 mg, 1.5 hr, read-out: BVDU plasma concentration, patient): 844 ng/mL; concentration at 2 h [6]: 904 ng/mL; concentration at 2 h [7]: 561 ng/mL; concentration at 3 h [6]: 738 ng/mL; concentration at 3 h [7]: 407 ng/mL; concentration at 4 h (both sexes, dose level 12000 mg, 4.0 hr, read-out: BVDU plasma concentration, Mean): 543 ng/mL; concentration at 4 h (both sexes, dose level 12000 mg, 4.0 hr, read-out: BVDU plasma concentration, Median): 440 ng/mL; concentration at 5 h [6]: 2080 ng/mL; concentration at 5 h [7]: 1070 ng/mL; concentration at 9 h [6]: 2340 ng/mL; concentration at 9 h [7]: 1780 ng/mL; Increase of mean maximum BVDU concentration in plasma (dose doubled from 125 mg to 250 mg): fivefold; BVDU plasma concentration, patient (dose level 6000 mg, 4.0 hr): 122 ng/mL and 90 ng/mL; BVDU plasma concentration, patient (dose level 12000 mg, 1.5 hr): 1524 ng/mL and 792 ng/mL; concentration at 0 h [8]: 0 ng/mL; concentration at 0.5 h [8]: 1130 ng/mL; concentration at 1 h [8]: 484 ng/mL; concentration at 1.5 h (dose level 7500 mg, 1.5 hr, read-out: BVDU plasma concentration, Median): 644 ng/mL; concentration at 2 h [8]: 403 ng/mL; concentration at 3 h [8]: 304 ng/mL; concentration at 4 h (dose level 7500 mg, 4.0 hr, read-out: BVDU plasma concentration, Median): 242 ng/mL; concentration at 5 h (dose level 7500 mg, read-out: BVDU plasma concentration, Mean): 641 ng/mL; concentration at 5 h [8]: 776 ng/mL; concentration at 9 h [8]: 898 ng/mL; concentration at 0 h [9]: 0 ng/mL; concentration at 0 h [10]: 0 ng/mL; concentration at 0 h (dose level 9000 mg, read-out: BVDU plasma concentration, patient): 0 ng/mL; concentration at 0.5 h [9]: 942 ng/mL; concentration at 0.5 h [10]: 979 ng/mL; concentration at 1 h [9]: 784 ng/mL; concentration at 1 h [10]: 781 ng/mL; concentration at 1.5 h (dose level 9000 mg, 1.5 hr, read-out: BVDU plasma concentration, Mean): 697 ng/mL; concentration at 1.5 h (dose level 9000 mg, 1.5 hr, read-out: BVDU plasma concentration, Median): 530 ng/mL; concentration at 2 h [9]: 701 ng/mL; concentration at 2 h [10]: 705 ng/mL; concentration at 3 h [9]: 464 ng/mL; concentration at 3 h [10]: 441 ng/mL; concentration at 4 h (dose level 9000 mg, 4.0 hr, read-out: BVDU plasma concentration, Mean): 420 ng/mL; concentration at 4 h (dose level 9000 mg, 4.0 hr, read-out: BVDU plasma concentration, Median): 378 ng/mL; concentration at 5 h [9]: 1300 ng/mL; concentration at 5 h [10]: 1020 ng/mL; concentration at 9 h [9]: 1510 ng/mL; concentration at 9 h [10]: 1630 ng/mL
